Reference: patent US9688653B2, “Ethoxyphenyl thienyl compounds and methods for the treatment of bacterial infections” (Duke University, priority 2013, dated 2017)
pIC50: −log10 of the molar value.

Legend:
[1] = test system: Bladder carcinoma 5637 cells; assay: Cytotoxicity counterscreen, CellTiter Glo, 72 hr; format: cell-based, human
Description: B. Counterscreen: Cytotoxicity Screening for Potential Inhibitors of Bacterial Capsule Biogenesis.
Purpose: This cell-based assay measures the cytotoxicity of compounds in bladder carcinoma 5637 cells using luminescent cell viability assay readout.
Cytotoxicity assay: The cytotoxicity assay was performed as described in Section 6: Appendix. Hit cytotoxicity and the 50% toxic concentration (CC50) was determined and compared to the IC50 to calculate the selectivity index.
Assay Description: Cytotoxicity: Dose response testing (dose range=300-0.58 μM) established the hit cytotoxicity data. Compounds were plated in 384-well microplates in a stacked dose response format using the same doses used in the efficacy dose response. Bladder carcinoma 5637 cells were added to the compounds, and 72 hr later cell viability was measured using CellTiter Glo (38). Hit cytotoxicity and the 50% toxic concentration (TC50) was determined and compared to the IC50 to calculate the therapeutic index. Test compounds are serially diluted in a plate to plate matrix or stacked plate matrix. All 320 compounds in a source plate are diluted together resulting in a 10 point dose response dilution series. It is visualized as a serial dilution series proceeding vertically through a stack of plates with the high dose plate on top and the low dose plate on the bottom.
Control Drug: Hyamine was used as a positive cytotoxic control. All wells contained 0.5% DMSO.
Preparation of Bladder carcinoma 5637 cells: Cells are harvested and resuspended to 80,000 cells per ml in Complete DMEM/F12®.
Endpoint Read: Following the three day incubation period, the assay plates were equilibrated to room temperature for 30 min and an equal volume (30 μL) of Cell Titer-Glo® reagent (Promega Inc.) is added to each well using a WellMate™ (Matrix, Hudson, N.H.) and plates are incubated for an additional 10 min at room temperature. At the end of the incubation, luminescence is measured using a Perkin Elmer Envision™ multi-label reader (PerkinElmer, Wellesley, Mass.) with an integration time of 0.1 s.
Cytotoxicity. Testing was performed essentially as previously described. Concentration-response testing was performed over a range 0.58-300 μM in a […] well plate format. Bladder carcinoma 5637 cells (ATCC HTB-9) were added to the compounds, and 72 hrs later cell viability was measured using CellTiter Glo (Promega). The 50% toxic concentration (TC50) was determined and compared to the IC50 to calculate the therapeutic index. Hyamine was used as a positive cytotoxic control. All wells contained 0.5% DMSO.

E. coli K1 strain UTI89 [2] = assay: microbe, parasite or virus in culture
From the text: The ability of the […] to bind to bacterial capsule, infect, and lyse E. coli UT189 was used as the primary assay to identify the effects of screened compounds on bacterial capsule formation. The phenotypic end-point assay measured the fluorescence generated by cellular processing of Alamar Blue as a direct indicator of cell viability. A total of […] compounds were screened using the primary assay. […] Hits were further evaluated using […] secondary assays for alternative measurement of compound-induced reduction in bacterial capsule formation (secondary assays 1 and 2) and specificity (secondary assays 3 and 4). Confirmed actives with an SI>5 were further investigated and subjected to chemical optimization, followed by secondary assay evaluation. Secondary assays more closely characterized the ability of the compounds to reduce bacterial capsule formation and can be used to examine the mechanism of action of the compounds. The combination of primary assay (to measure capsule reduction), counter assay (for general eukaryotic cell toxicity) and secondary assay (to measure reduction in capsule formation and specificity) were combined to allow a determination of probe efficacy, selectivity, and specificity.
A. Primary Assay: Screening for Inhibitors of Bacterial Capsule Biogenesis.
Primary assay: An end-point assay to measure the amount of K1 phage-induced bacterial cell lysis was employed to determine the compound effect on capsule biogenesis. K1 bacteriophage specifically binds the bacterial capsule during the initial stages of infection. Bacteria without capsule cannot be infected and lysed by the bacteriophage. […] A total of 338,740 compounds were screened at 100 μM in the primary screen Inhibition of phage lysis was calculated relative to the mean of the bacterial (positive) control on each microtiter plate. […] For calculation of S/B/Z value, and CV, the following formulae (in which SD stands for standard deviation) were used: S/B=mean signal/mean background; Z=1-3SD of sample+3SD of control mean of sample−mean of control; % CV=(SD mean signal/mean signal)×100.
IC50 values were calculated using a 4 parameter Levenburg-Marquardt algorithm, with the maximum and minimum locked at 0 and 100 respectively.
Primary assay: The primary assay was conducted in the 1,536 well plate format. Bacterial cultures of E. coli K1 strain UTI89 (cystitis isolate) and isogenic capsule mutant strains (as controls for phage infection) were grown and prepared at the screening center immediately prior to use. Overnight starting cultures of UTI89 were grown at 37° C., and inoculated into 1 liter of LB (starting OD600˜0.03), which was sufficient for screening 40 plates (including ˜10% waste) and ˜40,000 compounds as single points.
Control wells contained UTI89 (wt K1) with 0.5% DMSO as a simulated positive control; UTI89 with 0.5% DMSO and tetracycline for a negative growth control; and media plus vehicle control. 50 mL of LB Broth was inoculated with stock 150 μL E. coli UT189 and grown overnight at 37° C. The next day, cultures were diluted 1:75 in 1 L of LB Broth containing 0.5% DMSO. 3 μL of this culture was added to each plate well, and plates were incubated, inverted, at 37° C. for 2 hr. The K1F bacteriophage stock was diluted 1:8 in LB Broth containing 0.5% DMSO, and 1.5 μL of diluted phage (or media only) was added to the pre-plated test compound wells and appropriate control wells. The plates were centrifuged briefly, and then were incubated, inverted, at 37° C. for an additional 2 hr. Afterward, Alamar Blue reagent (Invitrogen, #DAL1100) was diluted 1:2 with LB broth and 1 μL was added to each plate well.

E. coli K1 strain UTI89 [3] = assay: Secondary assay 2: T7 phage-mediated lysis assay; format: cell-based, Escherichia coli; conditions: read-out: T7 phage IC50
From the text: D. Secondary Assay 2: Screening for Inhibitors of Bacterial Capsule Biogenesis—T7 Lysis Inhibition
Purpose: This secondary assay measures the compound mechanistic specificity for inhibition of bacterial capsule formation and excludes inhibitors of phage replication using a different bacteriophage (T7). In this assay, an increase in phage-induced lysis correlates to a decrease in capsule formation.
Purpose: This secondary assay measures the compound mechanistic specificity for inhibition of bacterial capsule formation using a different bacterial phage (T7). In this assay, an increase in phage-induced lysis correlates to a decrease in capsule formation.
Assay Description: T7 phage-mediated lysis assay: This assay determined if the mechanism of action of the compound is inhibition of phage infectivity or replication. The T7 phage has a nearly identical genome to K1F, without encoding an endosialidase. Its cycle of replication is similar to that of K1F as well. However, T7 entry into E. coli is inhibited by K capsules. This secondary assay was conducted in the 96 well plate format. […] Compounds were added in quadruplicate to plates in a concentration dependent manner in the range of 100-0.39 μM, followed by addition of 100 μL of bacterial culture. 1% DMSO (final well concentration) was included. The plates were tape sealed and shaken vigorously for 1.5 hr. An initial OD600 reading was measured to identify compounds that cause growth retardation or bacterial killing in the absence of phage. Next, T7 phage (5 μL) was added to all of the test wells. The plates were resealed and shaken vigorously at 37° C., and measurements of OD600 for phage-mediated lysis were taken after 3 hr. True inhibitors of capsule yielded bacteria that were susceptible to T7 phage and lysed within 2 hr of the addition of phage. […] The positive control drug C7 (100 μM final well concentration) was used in this screen.
T7 phage counter assay. This secondary assay was performed as previously described and was used to distinguish compounds with phage inhibitory effects from true polysaccharide capsule inhibitors. […] Thus, the presence of a capsule inhibits T7-mediated lysis. In this assay, an increase in phage-induced lysis correlates to a decrease in capsule formation. True inhibitors of capsule yielded bacteria that were susceptible to T7 phage and lysed within 2 hr of the addition of phage. […] The positive control molecule C7 (100 μM final well concentration) was used in this screen.

[4] = read-out: K1 phage IC50 (inhibition of K1 capsule formation)
[5] = read-out: K1 phage IC50, purchased analogue series, n = 3
[6] = purchased analogue series, n = 2
[7] = read-out: K1 phage IC50, second round of synthetic analogues, n = 3
[8] = second round of synthetic analogues, n = 2
[9] = read-out: K1 phage IC50, first round of synthetic analogues, n = 3
[10] = first round of synthetic analogues, n = 2

Row | Compound | pIC50 [1] | pIC50 (E. coli K1 strain UTI89 [3]; [8]) | pIC50 (E. coli K1 strain UTI89 [2]; [9]) | pIC50 (E. coli K1 strain UTI89 [3]; [10]) | other results
1 | O=C(O)c1sc(-c2ccc(OCCC(F)(F)F)cc2)cc1NC(=O)c1c(F)cccc1F [CID 56643020] | – | – | – | – | Cytotoxicity CC50 / TC50 / IC50 ([1]; bladder carcinoma 5637 cells): 68.41 µM; pIC50 (E. coli K1 strain UTI89 [2]; [4]): 6.08; pIC50 (E. coli K1 strain UTI89 [3]): > 6.81
2 | Cc1c(C(=O)Nc2cc(-c3ccccc3)sc2C(=O)O)oc2ccccc12 [compound 17546661] | 4.31 | – | – | – | pIC50 (E. coli K1 strain UTI89 [2]; [5]): < 4.00; pIC50 (E. coli K1 strain UTI89 [3]; [6]): 4.48
3 | O=C(O)c1sc(-c2ccc(OCCC(F)(F)F)cc2)cc1NC(=O)c1c(F)cc(F)cc1F [compound 56643010] | 4.20 | > 6.20 | – | – | pIC50 (E. coli K1 strain UTI89 [2]; [7]): 5.51
4 | CC(C)c1ccc(-c2cc(NC(=O)c3ccc(Br)o3)c(C(=O)O)s2)cc1 [compound 53470420] | 4.30 | – | 5.51 | 5.90 | –
5 | CCCc1ccc(-c2cc(NC(=O)c3cc(Br)c(Br)o3)c(C(=O)O)s2)cc1 [compound 56643005] | 4.39 | > 5.30 | – | – | pIC50 (E. coli K1 strain UTI89 [2]; [7]): 5.17
6 | O=C(Nc1cc(-c2ccccc2)sc1C(=O)O)c1cccc(Cl)c1 [compound 23602077] | 4.36 | – | – | – | pIC50 (E. coli K1 strain UTI89 [2]; [5]): 4.07; pIC50 (E. coli K1 strain UTI89 [3]; [6]): 4.46
7 | CCCCOc1ccc(-c2cc(NC(=O)c3ccc(Br)o3)c(C(=O)O)s2)cc1 [CID 56643021] | 4.36 | > 6.20 | – | – | pIC50 (E. coli K1 strain UTI89 [2]; [4]): 6.07
8 | CCCc1ccc(-c2cc(NC(=O)c3ccc(Br)o3)c(C(=O)O)s2)cc1 [compound 56643013] | 4.33 | > 6.20 | – | – | pIC50 (E. coli K1 strain UTI89 [2]; [7]): 5.84
9 | CCOc1ccc(-c2cc(NC(=O)c3ccc(Br)o3)c(C(=O)O)s2)cc1 [compound 23602086] | 4.16 | – | – | > 6.20 | –
10 | O=C(O)c1sc(-c2ccc(OC(F)(F)F)cc2)cc1NC(=O)c1c(F)cccc1F [compound 53495055] | 4.29 | – | 4.89 | 5.87 | –
11 | O=C(Nc1cc(-c2ccc(C(F)(F)F)cc2)sc1C(=O)O)c1ccc(Br)o1 [compound 53470416] | 4.32 | – | 4.91 | 5.59 | –
12 | O=C(Nc1cc(-c2ccccc2)sc1C(=O)O)c1cccs1 [compound 9945365] | 4.21 | – | – | – | pIC50 (E. coli K1 strain UTI89 [2]; [5]): 4.12; pIC50 (E. coli K1 strain UTI89 [3]; [6]): 5.16
13 | O=C(Nc1cc(-c2ccc(C(F)(F)F)cc2)sc1C(=O)O)c1cccc(F)c1 [compound 53470418] | 4.45 | – | < 4.00 | 4.89 | –
